Results taken from patent publication US11578055B2, “Triazacyclododecansulfonamide (“TCD”)-based protein secretion inhibitors” (KEZAR LIFE SCIENCES, priority 2018, dated 2023).
Where two headings read alike, the source gives them in different places.

Columns and labels:
[1] = tested on: multiple myeloma cell line U266B1; assay: U266 Cell Viability Assay; format: cell-based, human; settings: Homo sapiens, U-266, 48 hr
Procedure, shortened: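 U266B1 myeloma cells in RPMI 1640 with 10% FBS were treated with compound dilutions for 48 h at 37° C, 5% CO2. Viability was read as CellTiter-Glo luminescence. Data for structures drawn without stereochemistry refer to stereoisomer mixtures.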

[2] = In Vitro Microsome Stability Assay (rat); format: in vitro ADME
Procedure, shortened: (§1)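 Test article, added from a 0.25 mM DMSO stock, was incubated with liver microsomes (20 mg/mL stock) in 0.1 M potassium phosphate at 37° C, with the reaction started by NADPH. Samples were quenched with acetonitrile containing internal standard at 0 and 30 min and analysed by LC-MS/MS. Values are % remaining at 30 min versus 0 min, using IS-normalised AUC ratios.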

[3] = In Vitro Microsome Stability Assay (monkey); format: in vitro ADME
Procedure, shortened: as §1

[4] = tested on: multiple myeloma cell line NCl-H929; assay: H929 Cell Viability Assay; format: cell-based, human; settings: Homo sapiens, NCI-H929, 48 h
Procedure, shortened: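 NCI-H929 myeloma cells in RPMI 1640 with 10% FBS were treated with compound dilutions for 48 h at 37 °C, and viability was then read by CellTiter-Glo luminescence. Compounds drawn without stereochemistry were tested as stereoisomer mixtures.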

[5] = In Vitro Microsome Stability Assay (mouse); format: in vitro ADME
Procedure, shortened: as §1

[6] = tested on: full length IL-2 (amino acids 1-153) fused to Gaussia Luciferase; assay: Dox Induced IL2-FL-Gluc Assay; format: cell-based; settings: 24 hr, read-out: 24 hr Dox Inducible IL2FLGluc 293FRT/TO: Mean IC50
Description: FIp-In 293 T-REx™ cells were transfected with pcDNA™5/FRT/TO plasmid inserted with cDNA encoding Gaussia Luciferase fused to the 3′ end of cDNA encoding full length IL-2 (amino acids 1-153). Transfected cells were selected for resistance to the selectable markers Hygromycin and Blasticidin to create a stable cell line that contained the IL-2-FL/Gaussia Luciferase cDNA insert whose expression was regulated under the T-REx™ system. The day before assay, cells were trypsinized and plated in 384-well tissue culture plates. The next day, compound dilutions in DMSO/media containing doxycycline were added to the wells and incubated at 37° C., 5% CO2.
For chemical structures that include one or more stereoisomers, but are illustrated without indicating stereochemistry, the assay data refers to a mixture of stereoisomers.

[7] = In Vitro Microsome Stability Assay (human); format: in vitro ADME
Procedure, shortened: as §1

[8] = tested on: full length TNFα (amino acids 1-233) fused to Gaussia Luciferase; assay: Dox Induced TNFα-FL-Gluc Assay; format: cell-based; settings: 24 hr, read-out: 24 hr Dox Inducible TNFaFLGluc 293FRT/TO: Mean IC50
Procedure, shortened: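 Stable Flp-In 293 T-REx line expressing doxycycline-inducible full-length TNFα fused to Gaussia luciferase; cells plated the day before, then treated with compound dilutions in doxycycline-containing medium at 37° C, 5% CO2. Unspecified stereocentres mean stereoisomer mixtures were tested.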

[9] = tested on: PD1 signal sequence plus 10 amino acids fused to Gaussia Luciferase (PD1-ss+10aa/Gaussia Luciferase); assay: Dox Induced PD1-ss-Gluc Assay; format: cell-based; settings: 24 hr, read-out: 24 hr Dox Inducible PD1ssGluc 293FRT/TO: Mean IC50
Procedure, shortened: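 Stable Flp-In 293 T-REx line expressing the fusion under tetracycline-inducible control, plated the day before assay. Compound dilutions added with doxycycline and incubated at 37 °C, 5% CO2; unspecified stereocentres mean data refer to stereoisomer mixtures.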

[10] = rat liver microsomes, 30 min w/ NADPH
[11] = monkey liver microsomes, 30 min w/ NADPH
[12] = mouse liver microsomes, 30 min w/ NADPH
[13] = human liver microsomes, 30 min w/ NADPH

Row | SMILES | EC50 ([1]; U266, Celltiter-Glo) [nM] | Liver Microsome Stability-% Left after 30 min w/ NADPH (%) Rat [2, 10] [%] | Liver Microsome Stability-% Left after 30 min w/ NADPH (%) Monkey [3, 11] [%] | EC50 ([4]; H929, Celltiter-Glo) [nM] | Liver Microsome Stability-% Left after 30 min w/ NADPH (%) Mouse [5, 12] [%] | IC50 ([6]; Dox inducible, 293FRT/TO cells) [nM] | Liver Microsome Stability-% Left after 30 min w/ NADPH (%) Human [7, 13] [%] | IC50 ([8]; Dox inducible, 293FRT/TO cells) [nM] | IC50 ([9]; Dox inducible, 293FRT/TO cells) [nM] | EC50 ([1]; U266, read-out: 48 hr U266 Viability Celltiter-Glo: Mean EC50) [nM] | Liver Microsome Stability-% Left after 30 min w/ NADPH (%) Rat ([2]; rat, 30 min, NADPH) [%] | Liver Microsome Stability-% Left after 30 min w/ NADPH (%) Monkey ([3]; monkey, 30 min, NADPH) [%] | EC50 ([4]; H929, read-out: 48 hr H929 Viability Celltiter-Glo: Mean EC50) [nM] | Liver Microsome Stability-% Left after 30 min w/ NADPH (%) Mouse ([5]; mouse, 30 min, NADPH) [%] | IC50 ([6]; 293FRT/TO) [nM] | Liver Microsome Stability-% Left after 30 min w/ NADPH (%) Human ([7]; human, 30 min, NADPH) [%] | IC50 ([8]; 293FRT/TO) [nM] | IC50 ([9]; 293FRT/TO) [nM]
1 | C[C@H]1CN(S(=O)(=O)c2ccc(N(C)C)cc2)CCCN(CC2CCCCC2)CCCN(S(=O)(=O)N2CCN(c3ncccn3)CC2)C1 [A93, 4-{[(3S)-9-(cyclohexylmethyl)-3-methyl-5-{[4-(pyrimidin-2-yl)piperazin-1-yl]sulfonyl}-1,5,9-triazacyclododecan-1-yl]sulfonyl}-N,N-dimethylaniline] | – | – | – | – | – | – | – | – | – | > 25000 | 0.51 | 0.18 | 10400 | 0.4 | 911 | 0.84 | > 25000 | 670
2 | Cc1cc(F)ccc1N1CCN(S(=O)(=O)N2CCCN(CC3CCCCC3)CCCN(S(=O)(=O)c3ccc(N(C)C)cc3)C[C@H](C)C2)CC1 [A102, 4-{[(3S)-9-(cyclohexylmethyl)-5-{[4-(4-fluoro-2-methylphenyl)piperazin-1-yl]sulfonyl}-3-methyl-1,5,9-triazacyclododecan-1-yl]sulfonyl}-N,N-dimethylaniline] | > 25000 | 101.9 | 70 | 558 | 86.6 | 90.5 | 62.3 | 477 | 33.4 | – | – | – | – | – | – | – | – | –
3 | CCC(C)CN1CCCN(S(=O)(=O)c2ccc(N(C)C)cc2)C[C@H](C)CN(S(=O)(=O)N2CCc3cc(Cl)ccc3C2)CCC1 (stereo partly drawn) [A106, 4-{[(3S)-5-[(6-chloro-1,2,3,4-tetrahydroisoquinolin-2-yl)sulfonyl]-3-methyl-9-(2-methylbutyl)-1,5,9-triazacyclododecan-1-yl]sulfonyl}-N,N-dimethylaniline] | > 25000 | 18.9 | 30.7 | 903 | 8.81 | 126 | 7.18 | 1120 | 52.4 | – | – | – | – | – | – | – | – | –
4 | C[C@H]1CN(S(=O)(=O)c2ccc(N(C)C)cc2)CCCN(CC2=CCCC2)CCCN(S(=O)(=O)N2CCc3cc(Cl)ccc3C2)C1 [A142] | > 25000 | 22.6 | 3.89 | 1450 | 16 | 67 | 11.8 | 741 | 38.2 | – | – | – | – | – | – | – | – | –

More lines, now with the values ahead:

Row | EC50 ([1]; U266, Celltiter-Glo) [nM] | Liver Microsome Stability-% Left after 30 min w/ NADPH (%) Rat [2, 10] [%] | Liver Microsome Stability-% Left after 30 min w/ NADPH (%) Monkey [3, 11] [%] | EC50 ([4]; H929, Celltiter-Glo) [nM] | Liver Microsome Stability-% Left after 30 min w/ NADPH (%) Mouse [5, 12] [%] | IC50 ([6]; Dox inducible, 293FRT/TO cells) [nM] | Liver Microsome Stability-% Left after 30 min w/ NADPH (%) Human [7, 13] [%] | IC50 ([8]; Dox inducible, 293FRT/TO cells) [nM] | IC50 ([9]; Dox inducible, 293FRT/TO cells) [nM] | EC50 ([1]; U266, read-out: 48 hr U266 Viability Celltiter-Glo: Mean EC50) [nM] | Liver Microsome Stability-% Left after 30 min w/ NADPH (%) Rat ([2]; rat, 30 min, NADPH) [%] | Liver Microsome Stability-% Left after 30 min w/ NADPH (%) Monkey ([3]; monkey, 30 min, NADPH) [%] | EC50 ([4]; H929, read-out: 48 hr H929 Viability Celltiter-Glo: Mean EC50) [nM] | Liver Microsome Stability-% Left after 30 min w/ NADPH (%) Mouse ([5]; mouse, 30 min, NADPH) [%] | IC50 ([6]; 293FRT/TO) [nM] | Liver Microsome Stability-% Left after 30 min w/ NADPH (%) Human ([7]; human, 30 min, NADPH) [%] | IC50 ([8]; 293FRT/TO) [nM] | IC50 ([9]; 293FRT/TO) [nM] | SMILES
5 | > 25000 | 6.23 | 1.26 | > 25000 | 0.87 | 1260 | 2.57 | > 25000 | 1290 | – | – | – | – | – | – | – | – | – | C[C@H]1CN(S(=O)(=O)c2ccc(N(C)C)cc2)CCCN(CC2CCCCC2)CCCN(S(=O)(=O)N2CCN(C(=O)OC(C)(C)C)CC2)C1 [A153, tert-butyl 4-{[(3S)-9-(cyclohexylmethyl)-5-[4-(dimethylamino)benzenesulfonyl]-3-methyl-1,5,9-triazacyclododecan-1-yl]sulfonyl}piperazine-1-carboxylate]
6 | > 25000 | 73.9 | 70.2 | 4740 | 101 | 426 | 84.5 | 2400 | 145 | – | – | – | – | – | – | – | – | – | Cc1ccc(CN2CCCN(S(=O)(=O)c3ccc(N(C)C)cc3)C[C@H](C)CN(S(=O)(=O)N3CCc4cc(Cl)ccc4C3)CCC2)cc1 [A131, 4-{[(3S)-5-[(6-chloro-1,2,3,4-tetrahydroisoquinolin-2-yl)sulfonyl]-3-methyl-9-[(4-methylphenyl)methyl]-1,5,9-triazacyclododecan-1-yl]sulfonyl}-N,N-dimethylaniline]
7 | > 25000 | 9.19 | 73 | 6500 | 18.3 | 412 | 5.68 | 2660 | 201 | – | – | – | – | – | – | – | – | – | C[C@H]1CN(S(=O)(=O)c2ccc(N(C)C)cc2)CCCN(CC(F)(F)F)CCCN(S(=O)(=O)N2CCc3cc(Cl)ccc3C2)C1 [A167, 4-{[(3S)-5-[(6-chloro-1,2,3,4-tetrahydroisoquinolin-2-yl)sulfonyl]-3-methyl-9-(2,2,2-trifluoroethyl)-1,5,9-triazacyclododecan-1-yl]sulfonyl}-N,N-dimethylaniline]
8 | > 25000 | 3.6 | 3.22 | 2170 | 5.06 | 174 | 3.69 | 1030 | 81.5 | – | – | – | – | – | – | – | – | – | CC(C)CN1CCCN(S(=O)(=O)c2ccc(N(C)C)cc2)C[C@H](C)CN(S(=O)(=O)N2CCc3cc(Cl)ccc3C2)CCC1 [A152]
9 | > 25000 | 0.37 | 8.67 | > 25000 | 0.14 | 1090 | 0.2 | 11500 | 829 | – | – | – | – | – | – | – | – | – | C[C@H]1CN(S(=O)(=O)c2ccc(N(C)C)cc2)CCCN(Cc2ncco2)CCCN(S(=O)(=O)N2CCc3cc(Cl)ccc3C2)C1 [A125, 4-{[(3S)-5-[(6-chloro-1,2,3,4-tetrahydroisoquinolin-2-yl)sulfonyl]-3-methyl-9-[(1,3-oxazol-2-yl)methyl]-1,5,9-triazacyclododecan-1-yl]sulfonyl}-N,N-dimethylaniline]
10 | > 25000 | 66.1 | 53.9 | 7680 | 50.8 | 170 | 71.7 | 1080 | 52.3 | – | – | – | – | – | – | – | – | – | Cc1cccc(C)c1N1CCN(S(=O)(=O)N2CCCN(CC3CCCCC3)CCCN(S(=O)(=O)c3ccc(N(C)C)cc3)C[C@H](C)C2)CC1 [A119, 4-{[(3S)-9-(cyclohexylmethyl)-5-{[4-(2,6-dimethylphenyl)piperazin-1-yl]sulfonyl}-3-methyl-1,5,9-triazacyclododecan-1-yl]sulfonyl}-N,N-dimethylaniline]
